Test results: PubChem BioAssay AID330 (DTP/NCI, 2004)
Where “and” joins values, the source holds several entries; their conditions need not be identical. Equal entries are not always repeated. Toxic doses and inconclusive results are not listed.

System: P388 leukemia ip, CD2F1 mice, survival T/C
Assay: NCI In Vivo Anticancer Drug Screen. Data for tumor model P388 Leukemia (intraperitoneal) in CD2F1 (CDF1) mice
Settings: endpoint: median survival time, higher = longer survival
Method in brief: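 Mice carrying the transplanted tumor received test compound or vehicle. Survival was recorded in each group, and the value is the treated-group measurement divided by that of the vehicle-treated control group.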

[1] = dose: 50.0 mg/kg/injection, schedule: Q01DX005 (ip), vehicle: saline + Tween-80 + alcohol
[2] = dose: 100.0 mg/kg/injection, schedule: Q01DX005 (ip), vehicle: saline + Tween-80 + alcohol
[3] = dose: 200.0 mg/kg/injection, schedule: Q01DX005 (ip), vehicle: saline + Tween-80 + alcohol
[4] = dose: 50.0 mg/kg/injection, schedule: Q01DX009 (ip), vehicle: saline
[5] = dose: 100.0 mg/kg/injection, schedule: Q01DX009 (ip), vehicle: saline
[6] = dose: 60.0 mg/kg/injection, schedule: Q01DX005 (ip), vehicle: saline with Tween-80
[7] = dose: 120.0 mg/kg/injection, schedule: Q01DX005 (ip), vehicle: saline with Tween-80
[8] = dose: 240.0 mg/kg/injection, schedule: Q01DX005 (ip), vehicle: saline with Tween-80
[9] = dose: 50.0 mg/kg/injection, schedule: Q01DX005 (ip), vehicle: saline with Tween-80
[10] = dose: 100.0 mg/kg/injection, schedule: Q01DX005 (ip), vehicle: saline with Tween-80
[11] = dose: 200.0 mg/kg/injection, schedule: Q01DX005 (ip), vehicle: saline with Tween-80
[12] = dose: 50.0 mg/kg/injection, schedule: Q01DX005 (ip), vehicle: saline
[13] = dose: 100.0 mg/kg/injection, schedule: Q01DX005 (ip), vehicle: saline
[14] = dose: 200.0 mg/kg/injection, schedule: Q01DX005 (ip), vehicle: saline
[15] = dose: 25.0 mg/kg/injection, schedule: Q01DX009 (ip), vehicle: saline with Tween-80
[16] = dose: 50.0 mg/kg/injection, schedule: Q01DX009 (ip), vehicle: saline with Tween-80
[17] = dose: 100.0 mg/kg/injection, schedule: Q01DX009 (ip), vehicle: saline with Tween-80
[18] = dose: 200.0 mg/kg/injection, schedule: Q01DX009 (ip), vehicle: saline

`Oc1cc(O)c2c(c1)OC(c1ccc(O)c(O)c1)C(O)C2O` (stereo not given) was tested, and the T/C [1] was 98 % of control, the T/C [2] was 98 % of control and the T/C [3] was 92 % of control.
In the case of `CSC(=S)N/N=C/c1ccc[nH]1`, the T/C [4] was 100 % of control and the T/C [5] was 94 % of control.
`COc1c2occc2c(NC(=O)C(Cl)Cl)c2ccc(=O)oc12` was tested, and the T/C (dose: 2.5 mg/kg/injection, schedule: Q04DX002 (ip), vehicle: saline with Tween-80) was 101 % of control, the T/C (dose: 5.0 mg/kg/injection, schedule: Q04DX002 (ip), vehicle: saline with Tween-80) was 100 % of control and the T/C (dose: 10.0 mg/kg/injection, schedule: Q04DX002 (ip), vehicle: saline with Tween-80) was 99 % of control.
For `OC12CC3C4CC(O1)C1C4CC3C12` (stereo not given), the T/C (dose: 60.0 mg/kg/injection, schedule: Q01DX005 (ip), vehicle: saline) was 102 % of control, the T/C (dose: 120.0 mg/kg/injection, schedule: Q01DX005 (ip), vehicle: saline) was 109 % of control and the T/C (dose: 240.0 mg/kg/injection, schedule: Q01DX005 (ip), vehicle: saline) was 109 % of control.
With `COc1cc(C2C(C(C)=O)=C(C)Oc3cc4c(cc32)OCO4)cc(OC)c1O` (stereo not given) the T/C (dose: 15.0 mg/kg/injection, schedule: Q01DX005 (ip), vehicle: saline with Tween-80) was 91 % of control, the T/C (dose: 30.0 mg/kg/injection, schedule: Q01DX005 (ip), vehicle: saline with Tween-80) was 91 % of control and the T/C [6] was 86 % of control and 90 % of control.
With `Nc1ccc2c(c1)C(O)c1cccc(C(=O)O)c1-2` (stereo not given) the T/C [6] was 96 % of control, the T/C [7] was 101 % of control and the T/C [8] was 94 % of control.
`Cc1cc(NC(=O)C(=O)CC(=O)c2cccnc2)no1` was tested, and the T/C [9] was 102 % of control, the T/C [10] was 101 % of control and the T/C [11] was 101 % of control.
`C[n+]1ccn(Cc2ccc([N+](=O)[O-])cc2)c1` was tested, and the T/C [4] was 115 % of control and the T/C [5] was 102 % of control.
In the case of `C1CN2CCN3CCCN4CCN(C1)C2C34` (stereo not given), the T/C [12] was 93 % of control, the T/C [13] was 108 % of control and the T/C [14] was 111 % of control.
With `O=S1CCCS(=O)C1c1ccccc1` (stereo not given) the T/C [6] was 100 % of control, the T/C [7] was 91 % of control and the T/C [8] was 97 % of control.
With `COc1ccc(-n2c(=O)c(N=Nc3ccc(S(=O)(=O)N=C(N)N)cc3)c(O)n(-c3ccc(Cl)cc3)c2=S)cc1` the T/C (dose: 100.0 mg/kg/injection, schedule: Q01DX002 (ip), vehicle: Klucel (hydroxypropylcellulose) (HPC)) was 99 % of control, the T/C (dose: 200.0 mg/kg/injection, schedule: Q01DX002 (ip), vehicle: Klucel (hydroxypropylcellulose) (HPC)) was 107 % of control and the T/C (dose: 400.0 mg/kg/injection, schedule: Q01DX002 (ip), vehicle: Klucel (hydroxypropylcellulose) (HPC)) was 106 % of control.
In the case of `O=C(O)C(c1ccccc1)C1CCCC1` (stereo not given), the T/C (dose: 50.0 mg/kg/injection, schedule: Q04DX003 (ip), vehicle: saline with Tween-80) was 110 % of control, the T/C (dose: 100.0 mg/kg/injection, schedule: Q04DX003 (ip), vehicle: saline with Tween-80) was 110 % of control and the T/C (dose: 200.0 mg/kg/injection, schedule: Q04DX003 (ip), vehicle: saline with Tween-80) was 105 % of control.
For `CCc1nn(CCCN2CCN(c3cccc(Cl)c3)CC2)c(=O)n1CC`, the T/C [4] was 114 % of control and the T/C [5] was 116 % of control.
For `CC(C)CCc1cc(O)c(CCC(C)C)cc1O`, the T/C (dose: 6.25 mg/kg/injection, schedule: Q01DX009 (ip), vehicle: saline with Tween-80) was 88 % of control, the T/C [15] was 109 % of control and the T/C [16] was 108 % of control. The T/C [17] was 114 % of control.
`CCOC(=O)CC1CC(C)(C(=O)OCC)C(=O)CC1=O` (stereo not given) was tested, and the T/C [9] was 102 % of control, the T/C [10] was 104 % of control and the T/C [11] was 95 % of control.
For `CCOC(C)OCCCI` (stereo not given), the T/C [6] was 105 % of control, the T/C [7] was 101 % of control and the T/C [8] was 105 % of control.
`COc1cc2c(c(OC)c1OC)-c1ccc(SC)c(=O)cc1[C@@H](NC(=O)CO)CC2` was tested, and the T/C (dose: 0.1 mg/kg/injection, schedule: Q01DX009 (ip), vehicle: other) was 150 % of control and the T/C (dose: 0.2 mg/kg/injection, schedule: Q01DX009 (ip), vehicle: other) was 157 % of control and 172 % of control.
For `CNc1nc(NC)nc(N(C)C=O)n1`, the T/C [15] was 95 % of control and the T/C [16] was 90 % of control.
`Cc1ccc(S(=O)(=O)N/N=C/c2cc(I)cc([N+](=O)[O-])c2O)cc1` was tested, and the T/C [9] was 95 % of control, the T/C [10] was 101 % of control and the T/C [11] was 100 % of control.
For `COc1cc(C=O)c(C=O)cc1OC`, the T/C (dose: 25.0 mg/kg/injection, schedule: Q04DX003 (ip), vehicle: saline with Tween-80) was 100 % of control.
`CCOC1=C(C)Sc2ccccc2N=C1c1ccccc1` was tested, and the T/C (dose: 100.0 mg/kg/injection, schedule: Q04DX002 (ip), vehicle: Klucel + Tween-80) was 99 % of control, the T/C (dose: 200.0 mg/kg/injection, schedule: Q04DX002 (ip), vehicle: Klucel + Tween-80) was 93 % of control and the T/C (dose: 400.0 mg/kg/injection, schedule: Q04DX002 (ip), vehicle: Klucel + Tween-80) was 98 % of control.
`Nc1c(Cl)ccc2cccnc12` was tested, and the T/C [1] was 107 % of control, the T/C [2] was 107 % of control and the T/C [3] was 110 % of control.
With `N#CNC(=O)c1cccnc1` the T/C [4] was 99 % of control, the T/C [5] was 94 % of control and the T/C [18] was 99 % of control.
`CCOP(=O)(OCC)C(C#N)OC(C)(C)C` (stereo not given) was tested, and the T/C [6] was 109 % of control and the T/C [7] was 93 % of control.
For `CCCCC(CC)CSCN(CC)CC` (stereo not given), the T/C [4] was 100 % of control, the T/C [5] was 102 % of control and the T/C [18] was 112 % of control.
`CC1(C)CC(=O)C2(OC3=C([Se]2)C(=O)CC(C)(C)C3)C(=O)C1` was tested, and the T/C [16] was 110 % of control, the T/C [17] was 107 % of control and the T/C (dose: 200.0 mg/kg/injection, schedule: Q01DX009 (ip), vehicle: saline with Tween-80) was 107 % of control.
For `COc1ccc(C(=O)CC2CCCC(CC(=O)c3ccc(OC)cc3)N2C)cc1` (stereo not given), the T/C [16] was 100 % of control and the T/C [17] was 101 % of control.
With `OCCO` the T/C [5] was 86 % of control and 90 % of control, the T/C [18] was 100 % of control and 86 % of control and the T/C (dose: 400.0 mg/kg/injection, schedule: Q01DX009 (ip), vehicle: saline) was 104 % of control and 100 % of control. For the same molecule, the T/C (dose: 0.5 % in 0.5 ml injection vol, schedule: Q01DX009 (ip), vehicle: water) was 98 % of control, the T/C (dose: 1.0 % in 0.5 ml injection vol, schedule: Q01DX009 (ip), vehicle: water) was 99 % of control and 107 % of control and the T/C (dose: 2.0 % in 0.5 ml injection vol, schedule: Q01DX009 (ip), vehicle: water) was 100 % of control and 102 % of control. For the same molecule, the T/C (dose: 2.5 % in 0.5 ml injection vol, schedule: Q01DX009 (ip), vehicle: water) was 106 % of control, the T/C (dose: 4.0 % in 0.5 ml injection vol, schedule: Q01DX009 (ip), vehicle: water) was 94 % of control and the T/C (dose: 5.0 % in 0.5 ml injection vol, schedule: Q01DX009 (ip), vehicle: water) was 105 % of control. The T/C (dose: 10.0 % in 0.5 ml injection vol, schedule: Q01DX009 (ip), vehicle: water) was 103 % of control, the T/C (dose: 20.0 % in 0.5 ml injection vol, schedule: Q01DX009 (ip), vehicle: water) was 108 % of control and the T/C (dose: 40.0 % in 0.5 ml injection vol, schedule: Q01DX009 (ip), vehicle: water) was 100 % of control. For the same molecule, the T/C (dose: 50.0 % in 0.5 ml injection vol, schedule: Q01DX009 (ip), vehicle: water) was 107 % of control and the T/C (dose: 80.0 % in 0.5 ml injection vol, schedule: Q01DX009 (ip), vehicle: water) was 100 % of control.
In the case of `COc1ccc2c(=O)c(Cc3c(-c4ccccc4)[nH]c4ccccc34)coc2c1`, the T/C [6] was 98 % of control, the T/C [7] was 91 % of control and the T/C [8] was 90 % of control.
`CC(C)(C)C1CC[N+](=C(O[B-](F)(F)F)c2ccccc2)CC1` (stereo not given) was tested, and the T/C [6] was 100 % of control and the T/C [7] was 103 % of control.
In the case of `O=C1CCS(=O)(=O)C(=O)N1c1ccccc1`, the T/C (dose: 50.0 mg/kg/injection, schedule: Q01DX009 (ip), vehicle: Klucel (hydroxypropylcellulose) (HPC)) was 100 % of control, the T/C (dose: 100.0 mg/kg/injection, schedule: Q01DX009 (ip), vehicle: Klucel (hydroxypropylcellulose) (HPC)) was 97 % of control and the T/C (dose: 200.0 mg/kg/injection, schedule: Q01DX009 (ip), vehicle: Klucel (hydroxypropylcellulose) (HPC)) was 87 % of control.
For `CC(C)CNC(=O)c1ccc(OCC(O)CNC(C)(C)C)c(Cl)c1` (stereo not given), the T/C (dose: 100.0 mg/kg/injection, schedule: Q04DX003 (ip), vehicle: Klucel (hydroxypropylcellulose) (HPC)) was 107 % of control and the T/C (dose: 200.0 mg/kg/injection, schedule: Q04DX003 (ip), vehicle: Klucel (hydroxypropylcellulose) (HPC)) was 102 % of control.
In the case of `CC(CO)(CO)N(CCO)CCO`, the T/C [12] was 101 % of control, the T/C [13] was 101 % of control and the T/C [14] was 99 % of control.
